Test results reported in ChEMBL document CHEMBL2406981, “Novel pyrazoline amidoxime and their 1,2,4-oxadiazole analogues: synthesis and pharmacological screening” (Bioorg Med Chem Lett, 2013).
Values after ≈ are worked out from the molar mass of the structure shown.

What was measured:
[1] = Antioxidant activity against ferric chloride-induced lipid peroxidation using egg lecithin at 0.25 ug/ml after 1 hr; format: functional
[2] = Antioxidant activity against ferric chloride-induced lipid peroxidation using egg lecithin at 100 ug/ml after 1 hr; format: functional
[3] = Antioxidant activity against ferric chloride-induced lipid peroxidation using egg lecithin at 2.5 ug/ml after 1 hr; format: functional
[4] = Antioxidant activity against ferric chloride-induced lipid peroxidation using egg lecithin at 0.5 ug/ml after 1 hr; format: functional
[5] = Antioxidant activity against ferric chloride-induced lipid peroxidation using egg lecithin at 0.1 ug/ml after 1 hr; format: functional
[6] = Antioxidant activity against ferric chloride-induced lipid peroxidation using egg lecithin at 0.75 ug/ml after 1 hr; format: functional
[7] = Antioxidant activity against ferric chloride-induced lipid peroxidation using egg lecithin at 10 ug/ml after 1 hr; format: functional
[8] = Antioxidant activity against ferric chloride-induced lipid peroxidation using egg lecithin at 5 ug/ml after 1 hr; format: functional
[9] = Antioxidant activity against ferric chloride-induced lipid peroxidation using egg lecithin at 50 ug/ml after 1 hr; format: functional
[10] = Antioxidant activity against ferric chloride-induced lipid peroxidation using egg lecithin at 1 ug/ml after 1 hr; format: functional
[11] = Antioxidant activity against ferric chloride-induced lipid peroxidation using egg lecithin at 0.01 ug/ml after 1 hr; format: functional
[12] = Antioxidant activity against ferric chloride-induced lipid peroxidation using egg lecithin at 0.05 ug/ml after 1 hr; format: functional
[13] = Antiinflammatory activity against heat-induced albumin denaturation at […] preincubated for 15 mins before heat induction by UV-vis spectrophotometer analysis; format: functional
[14] = Antioxidant activity assessed as reducing power of ferric ion at 100 ug/ml after 20 mins; format: functional; design: scale not given: the % may be the effect or the level left
Staphylococcus aureus [15] = assay: Antimicrobial activity against Staphylococcus aureus MTCC 96; format: functional
[16] = test system: Radical scavenging activity; assay: Antioxidant activity assessed as DPPH free radical scavenging activity at 10 ug/ml after 20 mins; format: functional
Klebsiella pneumoniae [17] = assay: Antimicrobial activity against Klebsiella pneumoniae MTCC 3384; format: functional
Shigella flexneri [18] = assay: Antimicrobial activity against Shigella flexneri MTCC 1457 at 100 ug/ml after 24 hrs by agar disc diffusion method; format: functional; conditions: MTCC 1457, 24 h, read-out: DIZ
Aspergillus flavus [19] = assay: Antimicrobial activity against Aspergillus flavus MTCC 873; format: functional
Bacillus cereus [20] = assay: Antimicrobial activity against Bacillus cereus MTCC 8372 at 50 ug/ml after 24 hrs by agar disc diffusion method; format: functional; conditions: MTCC 8372, 24 h, read-out: DIZ
Escherichia coli [21] = assay: Antimicrobial activity against Escherichia coli MTCC 724 at 100 ug/ml after 24 hrs by agar disc diffusion method; format: functional; conditions: MTCC 724, 24 h, read-out: DIZ
Escherichia coli [22] = assay: Antimicrobial activity against Escherichia coli MTCC 724 at 50 ug/ml after 24 hrs by agar disc diffusion method; format: functional; conditions: MTCC 724, 24 h, read-out: DIZ
Escherichia coli [23] = assay: Antimicrobial activity against Escherichia coli MTCC 724; format: functional
Aspergillus flavus [24] = assay: Antimicrobial activity against Aspergillus flavus MTCC 873 at 100 ug/ml after 24 hrs by agar disc diffusion method; format: functional; conditions: MTCC 873, 24 h, read-out: DIZ
[25] = Antioxidant activity assessed as reducing power of ferric ion at 50 ug/ml after 20 mins; format: functional; design: scale not given: the % may be the effect or the level left
Klebsiella pneumoniae [26] = assay: Antimicrobial activity against Klebsiella pneumoniae MTCC 3384 at 50 ug/ml after 24 hrs by agar disc diffusion method; format: functional; conditions: MTCC 3384, 24 h, read-out: DIZ
Bacillus cereus [27] = assay: Antimicrobial activity against Bacillus cereus MTCC 8372; format: functional
[28] = Antioxidant activity assessed as reducing power of ferric ion at 10 ug/ml after 20 mins; format: functional; design: scale not given: the % may be the effect or the level left
Bacillus cereus [29] = assay: Antimicrobial activity against Bacillus cereus MTCC 8372 at 100 ug/ml after 24 hrs by agar disc diffusion method; format: functional; conditions: MTCC 8372, 24 h, read-out: DIZ
Aspergillus flavus [30] = assay: Antimicrobial activity against Aspergillus flavus MTCC 873 at 50 ug/ml after 24 hrs by agar disc diffusion method; format: functional; conditions: MTCC 873, 24 h, read-out: DIZ
[31] = test system: Radical scavenging activity; assay: Antioxidant activity assessed as DPPH free radical scavenging activity at 50 ug/ml after 20 mins; format: functional
Aspergillus niger [32] = assay: Antimicrobial activity against Aspergillus niger MTCC 281 at 100 ug/ml after 24 hrs by agar disc diffusion method; format: functional; conditions: MTCC 281, 24 h, read-out: DIZ
Aspergillus niger [33] = assay: Antimicrobial activity against Aspergillus niger MTCC 281 at 50 ug/ml after 24 hrs by agar disc diffusion method; format: functional; conditions: MTCC 281, 24 h, read-out: DIZ
Shigella flexneri [34] = assay: Antimicrobial activity against Shigella flexneri MTCC 1457 at 50 ug/ml after 24 hrs by agar disc diffusion method; format: functional; conditions: MTCC 1457, 24 h, read-out: DIZ
Staphylococcus aureus [35] = assay: Antimicrobial activity against Staphylococcus aureus MTCC 96 at 100 ug/ml after 24 hrs by agar disc diffusion method; format: functional; conditions: MTCC 96, 24 h, read-out: DIZ
Staphylococcus aureus [36] = assay: Antimicrobial activity against Staphylococcus aureus MTCC 96 at 50 ug/ml after 24 hrs by agar disc diffusion method; format: functional; conditions: MTCC 96, 24 h, read-out: DIZ
[37] = test system: Radical scavenging activity; assay: Antioxidant activity assessed as DPPH free radical scavenging activity at 100 ug/ml after 20 mins; format: functional
Shigella flexneri [38] = assay: Antimicrobial activity against Shigella flexneri MTCC 1457; format: functional
Klebsiella pneumoniae [39] = assay: Antimicrobial activity against Klebsiella pneumoniae MTCC 3384 at 100 ug/ml after 24 hrs by agar disc diffusion method; format: functional; conditions: MTCC 3384, 24 h, read-out: DIZ
Aspergillus niger [40] = assay: Antimicrobial activity against Aspergillus niger MTCC 281; format: functional
[41] = Ratio of vitamin-E to compound for ferric chloride-induced lipid peroxidation; format: physicochemical

VITAMIN E
inhibition [1]: 4.1%
inhibition [2]: 92%
inhibition [3]: 17%
inhibition [4]: 6%
inhibition [5]: 3.4%
inhibition [6]: 7.7%
inhibition [7]: 47%
inhibition [8]: 26%
inhibition [9]: 62%
inhibition [10]: 9.3%
inhibition [11]: 1.2%
inhibition [12]: 2%

N/C(=N\O)C1CC(c2ccccc2)=NN1c1ccccc1 (centres undefined)
inhibition [1]: 8%
inhibition [13]: 61.7%
Activity [14]: 56%
MIC (Staphylococcus aureus [15]): 40 µg/mL (≈ 143 µM)
Activity [16]: 16%
MIC (Klebsiella pneumoniae [17]): 40 µg/mL (≈ 143 µM)
inhibition [2]: 14%
zone of inhibition at 100 µg/mL (Shigella flexneri [18]): 10 mm
MIC (Aspergillus flavus [19]): 30 µg/mL (≈ 107 µM)
zone of inhibition at 50 µg/mL (Bacillus cereus [20]): 2 mm
zone of inhibition at 100 µg/mL (Escherichia coli [21]): 7 mm
zone of inhibition at 50 µg/mL (Escherichia coli [22]): 2 mm
MIC (Escherichia coli [23]): 50 µg/mL (≈ 178 µM)
inhibition [3]: 14.7%
zone of inhibition at 100 µg/mL (Aspergillus flavus [24]): 4 mm
Activity [25]: 12%
zone of inhibition at 50 µg/mL (Klebsiella pneumoniae [26]): 2 mm
inhibition [4]: 8.2%
MIC (Bacillus cereus [27]): 50 µg/mL (≈ 178 µM)
Activity [28]: 8%
zone of inhibition at 100 µg/mL (Bacillus cereus [29]): 3 mm
inhibition [5]: 8.4%
zone of inhibition at 50 µg/mL (Aspergillus flavus [30]): 4 mm
Activity [31]: 28%
zone of inhibition at 100 µg/mL (Aspergillus niger [32]): 3 mm
zone of inhibition at 50 µg/mL (Aspergillus niger [33]): 2 mm
zone of inhibition at 50 µg/mL (Shigella flexneri [34]): 3 mm
zone of inhibition at 100 µg/mL (Staphylococcus aureus [35]): 6 mm
inhibition [6]: 8.5%
zone of inhibition at 50 µg/mL (Staphylococcus aureus [36]): 3 mm
inhibition [7]: 32%
inhibition [8]: 21%
inhibition [9]: 15%
Activity [37]: 51%
MIC (Shigella flexneri [38]): 40 µg/mL (≈ 143 µM)
inhibition [10]: 9.5%
zone of inhibition at 100 µg/mL (Klebsiella pneumoniae [39]): 8 mm
inhibition [11]: 0.7%
MIC (Aspergillus niger [40]): 50 µg/mL (≈ 178 µM)
inhibition [12]: 1.3%

N/C(=N\O)C1CC(c2ccc(O)cc2)=NN1c1ccccc1 (centres undefined)
inhibition [13]: 63.5%
Activity [14]: 79%
MIC (Staphylococcus aureus [15]): 50 µg/mL (≈ 169 µM)
Activity [16]: 24%
MIC (Klebsiella pneumoniae [17]): 20 µg/mL (≈ 67.5 µM)
inhibition [2]: 20%
zone of inhibition at 100 µg/mL (Shigella flexneri [18]): 20 mm
MIC (Aspergillus flavus [19]): 35 µg/mL (≈ 118 µM)
zone of inhibition at 50 µg/mL (Bacillus cereus [20]): 3 mm
zone of inhibition at 100 µg/mL (Escherichia coli [21]): 16 mm
zone of inhibition at 50 µg/mL (Escherichia coli [22]): 10 mm
MIC (Escherichia coli [23]): 15 µg/mL (≈ 50.6 µM)
Ratio [41]: 3
zone of inhibition at 100 µg/mL (Aspergillus flavus [24]): 12 mm
Activity [25]: 34%
zone of inhibition at 50 µg/mL (Klebsiella pneumoniae [26]): 8 mm
MIC (Bacillus cereus [27]): 40 µg/mL (≈ 135 µM)
Activity [28]: 12%
zone of inhibition at 100 µg/mL (Bacillus cereus [29]): 3 mm
zone of inhibition at 50 µg/mL (Aspergillus flavus [30]): 5 mm
Activity [31]: 41%
zone of inhibition at 100 µg/mL (Aspergillus niger [32]): 14 mm
zone of inhibition at 50 µg/mL (Aspergillus niger [33]): 10 mm
zone of inhibition at 50 µg/mL (Shigella flexneri [34]): 12 mm
zone of inhibition at 100 µg/mL (Staphylococcus aureus [35]): 8 mm
zone of inhibition at 50 µg/mL (Staphylococcus aureus [36]): 2 mm
inhibition [7]: 12%
inhibition [9]: 18%
Activity [37]: 76%
MIC (Shigella flexneri [38]): 10 µg/mL (≈ 33.7 µM)
zone of inhibition at 100 µg/mL (Klebsiella pneumoniae [39]): 12 mm
MIC (Aspergillus niger [40]): 15 µg/mL (≈ 50.6 µM)
